Literature values as cited in US20060235222A1, “Indole-derivative modulators of steroid hormone nuclear receptors” (ELI LILLY AND COMPANY, priority 2003, published 2006).

Tested on: patients suffering from advanced CHF
Settings: in combination with standard CHF therapy; cited from earlier work

Compound: CC(=O)S[C@@H]1CC2=CC(=O)CC[C@]2(C)[C@H]2CC[C@@]3(C)[C@@H](CC[C@@]34CCC(=O)O4)[C@H]12 [spironolactone]
- reduced cardiac related mortality: 30%
- reduced frequency of hospitalization: 35%
